Measured values taken from PMC11357992, “Non-invasive mapping of systemic neutrophil dynamics upon cardiovascular injury” (Nature Cardiovascular Research, 2023).
Where “and” joins values, the source holds several entries; their conditions need not be identical. Identical values can stand only once. Where no end group is shown, it is not given here. Side-chain parts run from the residue outwards. rhodamine‑labelled PEGylated perfluoro‑15‑crown‑5 ether nanoemulsion = not defined here; carboxyfluorescein = N-terminal fluorescence label (CF)

Assays:
[1] = Dynamic light scattering and ζ potential of PFCs; type: physicochemical; settings: panel B raw data, single replicates #1-#6
Protocol: Dynamic light scattering and the ζ potential were measured as described previously[9],[32] at 25 °C using a Nanotrac Wave II analyzer (Microtrac) driven by Microtrac FLEX Software 3.4.
Extended Data Fig. 8 Physicochemical properties and cellular uptake of ^hNPPFCs. a, Cellular uptake of ^hNPPFCs by human monocyte subsets and neutrophils: Human immune cells isolated from the blood of healthy volunteers were incubated with ^hNPPFCs. Subsequently, cells were stained with CD11b, CD14 and CD16 to differentiate between neutrophils (red), classical monocytes (gray) and non-classical monocytes (blue) and the cells were analyzed by flow cytometry. The cellular uptake of ^hNPPFCs was determined under unstimulated conditions (top) and after treatment with 1 µg/ml LPS (bottom). b, Physicochemical properties of the generated nanotracers: Characterization of size, size distribution and ζ potential of ^MalPFCs and targeting PFCs (^hNPPFCs, ^ConPFCs) by dynamic light scattering (DLS). The rhodamine fluorescence signal of the PCS was determined by IVIS imaging and the ^19F content by ^19F MRI. c-e, Cryo transmission electron microscopy of the generated nanotracers: c, Cryo transmission electron microscopy (cryo-TEM) of ^hNPPFCs and ^ConPFCs. Graphs: The diameter of the PFCs was determined manually from three images categorized into 25 nm groups. […] Data are derived from three images for ^hNPPFCs and ^ConPFCs each. d, Box plot (box and whiskers; min to max) of the diameter of ^ConPFCs/^hNPPFCs calculated from cryo-TEM images. e, Relative amount of liposomes (%) in individual cryo-TEM images. The number of PFCs and liposomes was manually determined (n = 4/5 images). Red arrows in the cryo-TEM images indicate liposomes. Data are mean values ± SD of n = 5-6 (a), n = 3-6 (b), n = 3 (c), n = 3 (d) and n = 6 (e) independent experiments; *** = p < 0.001, verified by one-way ANOVA (a). Source data

murine neutrophils = test: 19F MRI of isolated murine neutrophils incubated with mNPPFCs/ConPFCs; type: cell-based, mouse; settings: 4 × 10^6 bone marrow neutrophils incubated 3 h at 37 °C with 50 µl PFCs; individual experiments
Protocol: A total of 4 × 10^6 neutrophils isolated from bone marrow with the EasySep Mouse Neutrophil Enrichment Kit (Stemcell Technologies) were resuspended in 1 ml DMEM and incubated for 3 h with 50 µl ^mNPPFCs or ^ConPFCs at 37 °C. Afterward, cells were washed three times with PBS, fixed with PFA, pelleted by centrifugation and analyzed by ^1H/^19F MRI.
Extended Data Fig. 2 Specific targeting of neutrophils by ^mNPPFCs. a, Flow cytometric analysis of murine blood leukocytes incubated with ^mNPPFCs over 80 min illustrating their predominant uptake by neutrophils (red) as compared to monocytes (blue) and lymphocytes (gray). b, To further validate specificity, binding of CD177 mAb as well as incorporation of ^mNPPFCs under basal and LPS-stimulated conditions were determined. Almost no binding/uptake into classical or non-classical monocytes as well as macrophages or eosinophils could be detected. […] Subsequently, cells were analyzed by ^1H/^19F MRI. Left: ^1H/^19F MRI of centrifugation tubes with neutrophils treated with ^mNPPFCs (lower panel) or ^ConPFCs (upper panel). […] Quantification of ^19F signals (4th column) clearly indicate substantial stronger ^19F uptake in ^mNPPFC-treated neutrophils (red) compared to cells incubated with ^ConPFCs (gray); a.u. = arbitrary units. […]

infarcted heart = test: Cardiac 19F MRI signal after MI (in vivo, time course, correlation with LGE); set-up: species or system mouse
Protocol: For labeling of neutrophils before MI, mice were anesthetized (1.5% isoflurane) and 1 mmol per kg BW PFCs were injected intravenously via the tail vein on 3 consecutive days. Induction of MI was essentially carried out as previously described. For inhibiting the egress of neutrophils from the bone marrow in a subset of experiments, a cocktail of neutralizing antibodies was injected i.p. 1 h before and 4 h after MI (CXCL1, CXCL2, G-CSF, GM-CSF, 50 µg each, Thermo Fisher). To generate neutropenic mice, 48 and 24 h before MI, 500 µg of the Ly6G-depletion antibody (BioXcell, clone 1A8) was injected i.p. in independent experiments.
All experiments were performed with a vertical 9.4 T Bruker AVANCE^III Wide Bore NMR spectrometer (Bruker) driven by ParaVision 5.1 and operating at frequencies of 400.21 MHz for ^1H measurements and 376.54 MHz for ^19F measurements using a Bruker microimaging unit, Micro2.5, with actively shielded gradient sets (1.5 T m^−1). Data were acquired using a 25-mm quadrature ^19F resonator with one channel tunable to both ^1H and ^19F. Mice were anesthetized with 1.5% isoflurane and kept at 37 °C. After acquisition of morphological ^1H images, the resonator was tuned to ^19F, and anatomically matching ^19F images were recorded essentially as described previously.
Images of mouse hearts were acquired in short-axis orientation using a retrospectively triggered fast low-angle shot cine sequence (IntragateFLASH, Bruker) as described previously. Thereafter, hearts were excised, washed and fixed with PFA for 3D high-resolution post-mortem MRI: ^1H FISP, TR = 4 ms, FOV = 1.00 × 1.00 × 1.00 cm³, matrix = 128 × 64 × 128, tAcq 151 min; ^19F RARE, TR = 2,500 ms, FOV = 1.00 × 1.00 × 1.00 cm³, matrix = 32 × 32 × 32, tAcq = 10 h.

| Substance | PDI ([1]; dynamic light scattering) | Size ([1]; dynamic light scattering) | zeta potential [1] | 19F signal of neutrophil cell pellet (19F MRI) (murine neutrophils) | fluorine signal (infarcted heart; cardiac 19F MRI after MI, paired with infarct size (correlation), panel A raw data, single animals) | cardiac 19F signal, Sham (infarcted heart; in vivo 19F MRI, Sham (substance not given), single animals) | cardiac 19F signal after MI (infarcted heart; in vivo 19F MRI, mice with MI, panel C raw data, single animals) | cardiac 19F signal, 1h (infarcted heart; time course after MI, 1h, panel B raw data, single animals #1-#6) | cardiac 19F signal, 3h (infarcted heart; time course after MI, 3h, single animals) | cardiac 19F signal, 6h (infarcted heart; time course after MI, 6h, single animals) | cardiac 19F signal, 24h (infarcted heart; time course after MI, 24h, single animals) | cardiac 19F signal, 48h (infarcted heart; time course after MI, 48h, single animals) | cardiac 19F signal, 72h (infarcted heart; time course after MI, 72h, single animals) |
| --- | --- | --- | --- | --- | --- | --- | --- | --- | --- | --- | --- | --- | --- |
| hNPPFCs: PEGylated rhodamine-labeled perfluorocarbon nanoemulsion coupled with human neutrophil-specific peptide hNP (carboxyfluorescein-DLVTSKLQVGGGC; also: C-terminal Cys coupled via maleimide-PEG2000-DSPE to rhodamine-labelled perfluorocarbon nanoemulsion) | 0.08 and 0.07 | 91.7 and 97.8 and 100.7 and 101.3 and 102.8 and 95.3 | -30.64 and -34.35 and -35.76 and -32.06 and -35.94 and -33.07 |  |  |  |  |  |  |  |  |  |  |
| mNPPFCs: PEGylated rhodamine-labeled perfluoro-15-crown-5 ether nanoemulsion (maleimide PFCs) coupled with murine neutrophil-specific peptide mNP (carboxyfluorescein-DFYKPMPNLRITGGGC([maleimide‑PEG2000‑DSPE-rhodamine‑labelled PEGylated perfluoro‑15‑crown‑5 ether nanoemulsion]); reading uncertain; also: printed as DFYKPMPNLRIT-GGG-C) |  |  |  | 349357 a.u. and 181876 a.u. and 297311 a.u. and 383564 a.u. and 306579 a.u. | 1143260.00 and 189700.00 and 404383.00 and 657147.00 and 1197310.00 and 718148.00 | 79451 and 78829 and 92374 and 48275 and 58581 and 66158 | 325890 and 570535 and 698329 and 580045 and 224755 and 325233 and 312147 and 344837 and 567674 and 107303 and 326458 and 189700 and 404383 and 657147 and 718148 | 153579.00 and 401063.98 and 321133.97 and 254881.37 and 314977.20 and 322448.95 | 445129.00 and 539772.19 and 408267.20 and 394516.08 and 617532.55 | 643519.00 and 466668.95 and 433563.34 and 788134.14 and 582620.85 | 1143260.00 and 608391.86 and 841920.06 and 1092840.00 and 1200290.00 and 913025.41 | 563325.00 and 546371.63 and 835937.39 and 937854.02 and 656412.62 | 589807.00 and 491276.01 and 1221090.00 and 1312800.00 and 804982.61 |
